# Source: US20120005128A1, “METHODS FOR REDUCING THE RISK OF AN ADVERSE DRONEDARONE / CALCIUM CHANNEL BLOCKERS INTERACTION IN A PATIENT SUFFERING FROM ATRIAL FIBRILATION” (sanofi, priority 2010, published 2012)
# Counter-ions that a name gives are not always drawn.
# Key:
# [1] = ATHENA clinical study, patients with calcium channel blockers baseline medication; assay type: in vivo
# Excerpt: Calcium channel blockers have been used in ATHENA clinical study and at the same rate in the dronedarone group and in the placebo group. About 13 to 20% of the patients had received one of these compounds during the study.
# In the ATHENA trial, the concomitant administration of calcium antagonists and dronedarone was done according to the above mentioned instructions, i.e. start with low doses of the calcium antagonist and then increase the dose after ECG verification of good tolerability, if necessary and based on individual patient characteristics.
# The relative risk (RR) was estimated using Cox's […] regression model.
# The relative risk (RR) is the ratio of the rates of occurrence of a hospitalization or of a death among the patients on dronedarone, relative to the patients on placebo.
# The percentage reduction x of a given event (hospitalization, death, cardiovascular death, etc.) is calculated in the following way: […]
# [2] = 12-lead ECG (PR, QTcF intervals) in dronedarone/verapamil interaction study, Day 14; conditions: baseline Day 1, -0.5 h, least square means
# [3] = Dronedarone/verapamil pharmacokinetic interaction crossover study, plasma PK on Day 14
# [4] = 331 patients with calcium channel blockers baseline medication, 122 events in placebo group (307 patients)
# [5] = versus placebo, Cox model, calcium channel blockers baseline medication
# [6] = versus placebo, calcium channel blockers baseline medication
# [7] = dronedarone plus verapamil versus dronedarone alone
# [8] = verapamil plus dronedarone versus verapamil alone
structure (smiles),measurement,setting,value
CCCCc1oc2ccc(NS(C)(=O)=O)cc2c1C(=O)c1ccc(OCCCN(CCCC)CCCC)cc1 [dronedarone hydrochloride],"Number of events, hospitalization for congestive heart failure (CHF)","[1]; 331 patients with calcium channel blockers baseline medication, 23 events in placebo group (307 patients)",14
same,"Number of events, cardiovascular hospitalization or death",[1]; [4],90
same,"Number of events, death",[1]; [4],90
same,"Relative risk, cardiovascular hospitalization or death",[1]; [5],0.628
same,"Relative risk, death",[1]; [5],0.628
same,"Relative risk, hospitalization for congestive heart failure (CHF)",[1]; [5],0.556
same,Decrease of CHF,[1]; [6],44%
same,Decrease of cardiovascular hospitalization or death,[1]; [6],37%
same,Decrease of death,[1]; [6],37%
"CCCCc1oc2ccc(NS(C)(=O)=O)cc2c1C(=O)c1ccc(OCCCN(CCCC)CCCC)cc1 [Dronedarone, 2-n-Butyl-3-[4-(3-di-n-butylaminopropoxy)benzoyl]-5-methylsulphonamidobenzofuran]","Risk of hypotension, bradycardia and heart failure",[1]; patients using both dronedarone and calcium antagonists,"no increase of the risk of hypotension, bradycardia and heart failure"
same,Mean change (Eavr) in PR from baseline,[2],9.7 ms
same,Mean change (Eavr) in QTcF from baseline,[2],22.1 ms
same,"Ratio of geometric means, AUC0-12",[3]; [7],1.48
same,"Ratio of geometric means, Cmax",[3]; [7],1.42
"COc1ccc(CCNCCCC(C#N)(c2ccc(OC)c(OC)c2)C(C)C)cc1OC (stereo not drawn) [NVP, norverapamil]","Ratio of geometric means, AUC0-24",[3]; [8],1.29
same,"Ratio of geometric means, Cmax",[3]; [8],1.31
"COc1ccc(CCN(C)CCCC(C#N)(c2ccc(OC)c(OC)c2)C(C)C)cc1OC (stereo not drawn) [VP, verapamil]",Mean change (Eavr) in PR from baseline,[2],4.2 ms
same,Mean change (Eavr) in QTcF from baseline,[2],2.1 ms
